In PubChem BioAssay (NCI):
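Each compound was tested at five concentrations against cells in 96-well plates for 48 hours. GI50 = concentration required for 50% inhibition of growth. Definition used: TGI = concentration required for complete inhibition of growth.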

How the values were obtained:
Test in all cases: NCI anticancer screen, dose series, 48 h
DLD-1 colon = tested on: DLD-1 colon
HL-60(TB) leukemia = tested on: HL-60(TB) leukemia
NCI-H460 lung = tested on: NCI-H460 lung
OVCAR-8 ovarian = tested on: OVCAR-8 ovarian
SNB-78 CNS = tested on: SNB-78 CNS
UACC-62 melanoma = tested on: UACC-62 melanoma
UO-31 renal = tested on: UO-31 renal
CCRF-CEM leukemia = tested on: CCRF-CEM leukemia
MDA-MB-231 breast = tested on: MDA-MB-231 breast
SR leukemia = tested on: SR leukemia

Structure (SMILES)	TGI (DLD-1 colon)	TGI (HL-60(TB) leukemia)	TGI (NCI-H460 lung)	TGI (OVCAR-8 ovarian)	TGI (SNB-78 CNS)	TGI (UACC-62 melanoma)	TGI (UO-31 renal)	TGI (CCRF-CEM leukemia)	GI50 (CCRF-CEM leukemia)	GI50 (DLD-1 colon)	GI50 (HL-60(TB) leukemia)	GI50 (MDA-MB-231 breast)	TGI (MDA-MB-231 breast)	GI50 (NCI-H460 lung)	GI50 (OVCAR-8 ovarian)	GI50 (SNB-78 CNS)	GI50 (SR leukemia)	TGI (SR leukemia)	GI50 (UACC-62 melanoma)	GI50 (UO-31 renal)
CCOC(=O)C1(Cc2ccc3ccccc3c2)CCCCCN1 (stereo not drawn)	56.9 µM	52 µM	34.7 µM	> 100 µM	> 100 µM	> 100 µM	82.1 µM	–	–	–	–	–	–	–	–	–	–	–	–	–
Cc1cccc(N=C2NC(=O)C(CC(=O)Nc3ccc(Cl)cc3C)S2)c1 (stereo not drawn)	> 100 µM	> 100 µM	> 100 µM	> 100 µM	–	> 100 µM	> 100 µM	> 100 µM	–	–	–	–	–	–	–	–	–	–	–	–
CC12C(=O)N(CCN)C(=O)C1C1c3ccccc3C2c2ccccc21 (stereo not drawn)	> 100 µM	> 100 µM	> 100 µM	> 100 µM	> 100 µM	> 100 µM	> 100 µM	> 100 µM	–	–	–	–	–	–	–	–	–	–	–	–
C=C=[CH][Sn]([c]1ccccc1)([c]1ccccc1)[c]1ccccc1	4.15 µM	4.57 µM	3.02 µM	3.68 µM	9.29 µM	3.28 µM	3.18 µM	3.4 µM	0.79 µM	1.48 µM	1.78 µM	1.79 µM	3.36 µM	1.44 µM	1.85 µM	3.1 µM	1.32 µM	8.39 µM	1.65 µM	1.44 µM
CCOC(=O)N1CCC(=O)C[C@@H]1C/C=C/P1(=O)O[C@H](c2ccccc2)C(C)N1C(C)C (stereo partly drawn)	–	–	–	> 100 µM	> 100 µM	> 100 µM	> 100 µM	–	–	–	–	–	–	–	–	–	–	> 100 µM	–	–
O=C(/C=C/c1ccc(Cl)c(Cl)c1)C1CCC(Cl)CC1 (stereo not drawn)	29.8 µM	–	73.8 µM	38.5 µM	42.3 µM	31.2 µM	33.9 µM	–	–	–	–	–	–	–	–	–	–	–	–	–
Nn1c(N=Nc2c(O)[nH]c3ccccc23)n[nH]c1=S	> 100 µM	> 100 µM	> 100 µM	> 100 µM	> 100 µM	> 100 µM	> 100 µM	> 100 µM	–	–	–	–	–	–	–	–	–	> 100 µM	–	–
COC(=O)C1=Cc2c(OC)cc(OC)c(OC)c2[C@H](c2cc(OC)c(OC)cc2OC)C1C(=O)OC (stereo partly drawn)	> 100 µM	> 100 µM	> 100 µM	> 100 µM	> 100 µM	> 100 µM	> 100 µM	> 100 µM	–	–	–	–	–	–	–	–	–	–	–	–
CCC[CH2][Sn]1([CH2]CCC)[O]C(=O)c2cc(C)ccc2[O]1	1.83 µM	0.444 µM	2.87 µM	2.05 µM	1.01 µM	1.56 µM	2.45 µM	0.561 µM	0.167 µM	0.537 µM	0.164 µM	–	–	1.54 µM	0.725 µM	0.368 µM	0.295 µM	1.28 µM	0.465 µM	1.19 µM
C[C@]12CCCC(=O)C1C[C@H](C(=O)O)CC2 (stereo partly drawn)	> 100 µM	> 100 µM	> 100 µM	> 100 µM	–	> 100 µM	> 100 µM	> 100 µM	–	–	–	–	–	–	–	–	–	> 100 µM	–	–
CCOC(=O)CNC(=O)C(CSC(=O)N(C)O)NC(=O)CCC(N)C(=O)O (stereo not drawn)	–	> 2000 µM	> 2000 µM	> 2000 µM	–	> 2000 µM	> 2000 µM	–	> 2000 µM	> 2000 µM	> 2000 µM	–	–	> 2000 µM	> 2000 µM	–	–	1.02 µM	> 2000 µM	> 2000 µM
CP(C)C.[Ag][I]	> 100 µM	> 100 µM	> 100 µM	> 100 µM	96.1 µM	> 100 µM	> 100 µM	> 100 µM	–	–	–	–	–	–	–	–	–	> 100 µM	–	–
O=C1CCC(=O)C(C(=O)CCC(=O)Nc2cccc(Cl)c2)C1 (stereo not drawn)	> 100 µM	> 100 µM	> 100 µM	> 100 µM	–	> 100 µM	> 100 µM	> 100 µM	–	–	–	–	–	–	–	–	–	> 100 µM	–	–
CCOC(=O)C1CC/C(=C(/C#N)C(=O)OC)N1 (stereo not drawn)	> 100 µM	> 100 µM	> 100 µM	> 100 µM	> 100 µM	> 100 µM	> 100 µM	> 100 µM	–	–	–	–	–	–	–	–	–	> 100 µM	–	–
NC(=O)CCC(NC(=O)C(F)(F)F)C(=O)O (stereo not drawn)	> 100 µM	–	> 100 µM	> 100 µM	> 100 µM	> 100 µM	> 100 µM	> 100 µM	–	–	–	–	–	–	–	–	–	–	–	–
CC(C)NC(=O)O/N=C1\CCC2[C@@H]3CC=C4C[C@@H](OC(=O)NC(C)C)CC[C@]4(C)C3CC[C@]12C (stereo partly drawn)	> 25.3 µM	5.37 µM	3.06 µM	3.75 µM	6.77 µM	3.18 µM	2.3 µM	5.03 µM	–	–	–	–	–	–	–	–	–	7.69 µM	–	–
CC1=NN(c2ccccc2)C(=O)C1N=Nc1ccc(Br)c(C)c1 (stereo not drawn)	> 100 µM	> 100 µM	> 100 µM	> 100 µM	> 100 µM	> 100 µM	–	> 100 µM	–	–	–	–	–	–	–	–	–	–	–	–
